Data as given in the supplement of paper PMC4862054.

Key:
Assay in all cases: normalised response (% of control), CellTox Green; higher = less cell death (100 = DMSO, 0 = benzethonium chloride kill control)
Conditions in all cases: incubation time: 72 h
[1] = system: CAL-51
In short: (§1)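 In 384-well plates holding compound at 5 concentrations in 10-fold steps over a 10,000-fold range specific to each compound, breast cancer cell lines were seeded as 20 µl suspension and incubated 72 h. CellTox Green fluorescence was measured at 485/520 nm, after which CellTiter-Glo luminescence was measured following 10 min at room temperature. Plate signals were normalised to 0.1 % DMSO (100) and a positive kill control (0), and each value is the normalised signal at a single concentration.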

[2] = system: CAL-85-1
In short: as §1

[3] = system: DU-4475
In short: as §1

[4] = system: HCC1143
In short: as §1

[5] = system: HDQ-P1
In short: as §1

[6] = system: MDA-MB-436
In short: as §1

[7] = system: MDA-MB-468
In short: as §1

[8] = system: MFM-223
In short: as §1

[9] = system: CAL-148
In short: as §1

| Structure (SMILES) | normalised response [1] [%] | normalised response [2] [%] | normalised response [3] [%] | normalised response [4] [%] | normalised response [5] [%] | normalised response [6] [%] | normalised response [7] [%] | normalised response [8] [%] | normalised response [9] [%] |
| --- | --- | --- | --- | --- | --- | --- | --- | --- | --- |
| COc1ccc(S(=O)(=O)Nc2cccnc2Nc2ccc(O)cc2)cc1 [ABT-751] (1000 nM) | 110 | 35.1 | 93.9 | 98.9 | 90.5 | 57.2 | -16.6 | 83.6 | – |
| COc1ccc(S(=O)(=O)Nc2cccnc2Nc2ccc(O)cc2)cc1 [ABT-751] (10000 nM) | 32.5 | 50.8 | 107 | 121 | 107 | 63.9 | 112 | 35.7 | 81.8 |
| Cc1cc(Nc2nc(N[C@@H](C)c3ncc(F)cn3)ncc2Cl)[nH]n1 [AZD1480] (100 nM) | 107 | 99.9 | 97.6 | 58.8 | 97.1 | 101 | 128 | 100 | 99 |
| Cc1cc(Nc2nc(N[C@@H](C)c3ncc(F)cn3)ncc2Cl)[nH]n1 [AZD1480] (1000 nM) | 69.4 | 109 | 98.2 | 97.3 | 69.3 | 105 | 84.2 | 41.5 | 85.8 |
| CNC(=O)c1ccccc1Sc1ccc2c(/C=C/c3ccccn3)n[nH]c2c1 [Axitinib] (1000 nM) | 76 | 104 | 104 | 51.8 | 102 | 84.9 | 129 | 66.7 | 108 |
| CNC(=O)c1ccccc1Sc1ccc2c(/C=C/c3ccccn3)n[nH]c2c1 [Axitinib] (10000 nM) | 40.2 | 75.7 | 108 | 103 | 58.1 | 89 | 156 | 97.7 | 22.8 |
| CC(O)(CS(=O)(=O)c1ccc(F)cc1)C(=O)Nc1ccc(C#N)c(C(F)(F)F)c1 (centres undefined) [Bicalutamide] (1000 nM) | 112 | 94.6 | 103 | 111 | 104 | 95.5 | 137 | 97.5 | 87.8 |
| CC(O)(CS(=O)(=O)c1ccc(F)cc1)C(=O)Nc1ccc(C#N)c(C(F)(F)F)c1 (centres undefined) [Bicalutamide] (10000 nM) | 92.2 | 67.6 | 104 | 134 | 66.2 | 78.1 | – | 100 | 105 |
| CCNC(=O)CCC/C=C\C[C@@H]1[C@@H](/C=C/[C@@H](O)CCc2ccccc2)[C@H](O)C[C@@H]1O [Bimatoprost] (550 nM) | 106 | 93.9 | 97.2 | 105 | 66.3 | 67.2 | 69 | 103 | 104 |
| CCNC(=O)CCC/C=C\C[C@@H]1[C@@H](/C=C/[C@@H](O)CCc2ccccc2)[C@H](O)C[C@@H]1O [Bimatoprost] (5500 nM) | 112 | 106 | 99.7 | 117 | 79.9 | 77 | – | 97.4 | 100 |
| COc1cc(Nc2c(C#N)cnc3cc(OCCCN4CCN(C)CC4)c(OC)cc23)c(Cl)cc1Cl [Bosutinib] (1000 nM) | 84.4 | 93.7 | 101 | 116 | 93.3 | 107 | 164 | – | 92.5 |
| COc1cc(Nc2c(C#N)cnc3cc(OCCCN4CCN(C)CC4)c(OC)cc23)c(Cl)cc1Cl [Bosutinib] (10000 nM) | 38.5 | -81.2 | 86.5 | 99.6 | 31.8 | 25.9 | -35 | 81.3 | 49 |
| Cn1cc(C2=C(c3cn(C4CCN(Cc5ccccn5)CC4)c4ccccc34)C(=O)NC2=O)c2ccccc21 [Enzastaurin] (1000 nM) | 104 | 97.7 | 104 | 105 | 87.7 | 89.4 | 112 | 82 | 60 |
| Cn1cc(C2=C(c3cn(C4CCN(Cc5ccccn5)CC4)c4ccccc34)C(=O)NC2=O)c2ccccc21 [Enzastaurin] (10000 nM) | 95.7 | 65 | 111 | 111 | 101 | 94.4 | 138 | 100 | 105 |
| CC(C)(C)NC(=O)[C@H]1CC[C@H]2[C@@H]3CC[C@H]4NC(=O)C=C[C@]4(C)[C@H]3CC[C@]12C [Finasteride] (1000 nM) | 107 | 107 | 103 | 96.8 | 113 | 102 | 145 | 93.2 | 104 |
| CC(C)(C)NC(=O)[C@H]1CC[C@H]2[C@@H]3CC[C@H]4NC(=O)C=C[C@]4(C)[C@H]3CC[C@]12C [Finasteride] (10000 nM) | 100 | 91.2 | 102 | 81.5 | 102 | 101 | 174 | – | 103 |
| Nc1ccn([C@@H]2O[C@H](CO)[C@@H](O)C2(F)F)c(=O)n1 [Gemcitabine] (100 nM) | 32.1 | 87.8 | 98.8 | 111 | 87.8 | 58.6 | 28.4 | 101 | 48.3 |

| Structure (SMILES) | normalised response [1] [%] | normalised response [2] [%] | normalised response [3] [%] | normalised response [4] [%] | normalised response [5] [%] | normalised response [6] [%] | normalised response [7] [%] | normalised response [8] [%] | normalised response [9] [%] |
| --- | --- | --- | --- | --- | --- | --- | --- | --- | --- |
| Nc1ccn([C@@H]2O[C@H](CO)[C@@H](O)C2(F)F)c(=O)n1 [Gemcitabine] (1000 nM) | 55.1 | 73 | 96.9 | 103 | 108 | 89.8 | 122 | 104 | 61.1 |
| CC(C)C[C@H](NC(=O)[C@@H](COC(C)(C)C)NC(=O)[C@H](Cc1ccc(O)cc1)NC(=O)[C@H](CO)NC(=O)[C@H](Cc1c[nH]c2ccccc12)NC(=O)[C@H](Cc1cnc[nH]1)NC(=O)[C@@H]1CCC(=O)N1)C(=O)N[C@@H](CCCNC(=N)N)C(=O)N1CCC[C@H]1C(=O)NNC(N)=O [Goserelin] (1000 nM) | 105 | 106 | 96.9 | 112 | 107 | 92.4 | 158 | 83.2 | 102 |
| CC(C)C[C@H](NC(=O)[C@@H](COC(C)(C)C)NC(=O)[C@H](Cc1ccc(O)cc1)NC(=O)[C@H](CO)NC(=O)[C@H](Cc1c[nH]c2ccccc12)NC(=O)[C@H](Cc1cnc[nH]1)NC(=O)[C@@H]1CCC(=O)N1)C(=O)N[C@@H](CCCNC(=N)N)C(=O)N1CCC[C@H]1C(=O)NNC(N)=O [Goserelin] (10000 nM) | 104 | 114 | 98.9 | – | 62.5 | 90.3 | 181 | – | 104 |
| CC(=O)[C@]1(O)Cc2c(O)c3c(c(O)c2[C@@H](O[C@H]2C[C@H](N)[C@H](O)[C@H](C)O2)C1)C(=O)c1ccccc1C3=O [Idarubicin] (100 nM) | 70.2 | 86.2 | 95.2 | 102 | – | 40.4 | 49.4 | 99.2 | 36 |
| CC(=O)[C@]1(O)Cc2c(O)c3c(c(O)c2[C@@H](O[C@H]2C[C@H](N)[C@H](O)[C@H](C)O2)C1)C(=O)c1ccccc1C3=O [Idarubicin] (1000 nM) | -13.1 | -10.6 | 81.7 | 110 | 85.6 | 83.7 | 18.9 | 37.8 | 28.9 |
| C/C(=C\c1csc(C)n1)[C@@H]1C[C@@H]2O[C@]2(C)CCC[C@H](C)[C@H](O)[C@@H](C)C(=O)C(C)(C)[C@@H](O)CC(=O)N1 [Ixabepilone] (100 nM) | 35.9 | 95.9 | 103 | 102 | – | 106 | 83 | 98.8 | 102 |
| C/C(=C\c1csc(C)n1)[C@@H]1C[C@@H]2O[C@]2(C)CCC[C@H](C)[C@H](O)[C@@H](C)C(=O)C(C)(C)[C@@H](O)CC(=O)N1 [Ixabepilone] (1000 nM) | 33.8 | 14.6 | 101 | 120 | 96.2 | 103 | 87.1 | 105 | 100 |
| C=CCn1c(=O)c2cnc(Nc3ccc(N4CCN(C)CC4)cc3)nc2n1-c1cccc(C(C)(C)O)n1 [MK1775] (1000 nM) | 17.8 | 25.9 | 87 | 103 | 48.7 | 29.9 | 56.5 | 68.5 | -11.1 |
| C=CCn1c(=O)c2cnc(Nc3ccc(N4CCN(C)CC4)cc3)nc2n1-c1cccc(C(C)(C)O)n1 [MK1775] (10000 nM) | 41.9 | 4.99 | 85.3 | 14.8 | 40.5 | 67.1 | 45 | 67.2 | 22.7 |
| CO[C@@H]1[C@H](N(C)C(=O)c2ccccc2)C[C@H]2O[C@]1(C)n1c3ccccc3c3c4c(c5c6ccccc6n2c5c31)C(=O)NC4 [Midostaurin] (1000 nM) | -37.7 | 92.1 | 87.7 | 63.8 | 93 | 77.3 | -9.58 | 78.8 | 67.4 |
| CO[C@@H]1[C@H](N(C)C(=O)c2ccccc2)C[C@H]2O[C@]1(C)n1c3ccccc3c3c4c(c5c6ccccc6n2c5c31)C(=O)NC4 [Midostaurin] (10000 nM) | -24.3 | 97.5 | 88.6 | 91.4 | 55.3 | 83.6 | 0.55 | 93.1 | 66.4 |
| CO[C@@]12[C@H](COC(N)=O)C3=C(C(=O)C(C)=C(N)C3=O)N1C[C@@H]1N[C@@H]12 [Mitomycin C] (1000 nM) | 35.3 | 97.6 | 94.7 | 104 | 106 | 78.8 | – | 101 | 97.8 |
| CO[C@@]12[C@H](COC(N)=O)C3=C(C(=O)C(C)=C(N)C3=O)N1C[C@@H]1N[C@@H]12 [Mitomycin C] (10000 nM) | -36.9 | 102 | 94.7 | 36.6 | 71.8 | 90.2 | 5.66 | – | 42.2 |
| CCNC(=O)c1noc(-c2cc(C(C)C)c(O)cc2O)c1-c1ccc(CN2CCOCC2)cc1 [NVP-AUY922] (100 nM) | 64.1 | 63.1 | 65.5 | 87.9 | 62.8 | 67.1 | 31.9 | 78.3 | 21.6 |
| CCNC(=O)c1noc(-c2cc(C(C)C)c(O)cc2O)c1-c1ccc(CN2CCOCC2)cc1 [NVP-AUY922] (1000 nM) | 48.1 | 37.6 | 72.5 | 74.2 | 68.8 | 107 | 112 | 98.3 | 42.9 |
| CC1(C)CCC(c2ccc(Cl)cc2)=C(CN2CCN(c3ccc(C(=O)NS(=O)(=O)c4ccc(N[C@H](CCN5CCOCC5)CSc5ccccc5)c(S(=O)(=O)C(F)(F)F)c4)cc3)CC2)C1 [Navitoclax] (1000 nM) | 60.1 | 79.3 | 90.2 | 92.9 | 54.7 | 101 | 84.7 | 95.8 | 71.7 |
| O=C(CCCCCCC(=O)Nc1ccccc1)NO [Vorinostat] (1000 nM) | 96.6 | 95.5 | 94.5 | 100 | – | 73.5 | 103 | 97.3 | 100 |
